We go through five compounds from ChEMBL document CHEMBL3407334, “Synthesis of novel inhibitors of α-glucosidase based on the benzothiazole skeleton containing benzohydrazide moiety and their molecular docking studies” (Eur J Med Chem, 2015).

This test addresses Maltase-glucoamylase (Homo sapiens, UniProt O43451). Put plainly: Inhibition of alpha-glucosidase (unknown origin) using pNPG substrate incubated for 15 mins by microplate reader based method.

Sequence of Maltase-glucoamylase (O43451 whole entry): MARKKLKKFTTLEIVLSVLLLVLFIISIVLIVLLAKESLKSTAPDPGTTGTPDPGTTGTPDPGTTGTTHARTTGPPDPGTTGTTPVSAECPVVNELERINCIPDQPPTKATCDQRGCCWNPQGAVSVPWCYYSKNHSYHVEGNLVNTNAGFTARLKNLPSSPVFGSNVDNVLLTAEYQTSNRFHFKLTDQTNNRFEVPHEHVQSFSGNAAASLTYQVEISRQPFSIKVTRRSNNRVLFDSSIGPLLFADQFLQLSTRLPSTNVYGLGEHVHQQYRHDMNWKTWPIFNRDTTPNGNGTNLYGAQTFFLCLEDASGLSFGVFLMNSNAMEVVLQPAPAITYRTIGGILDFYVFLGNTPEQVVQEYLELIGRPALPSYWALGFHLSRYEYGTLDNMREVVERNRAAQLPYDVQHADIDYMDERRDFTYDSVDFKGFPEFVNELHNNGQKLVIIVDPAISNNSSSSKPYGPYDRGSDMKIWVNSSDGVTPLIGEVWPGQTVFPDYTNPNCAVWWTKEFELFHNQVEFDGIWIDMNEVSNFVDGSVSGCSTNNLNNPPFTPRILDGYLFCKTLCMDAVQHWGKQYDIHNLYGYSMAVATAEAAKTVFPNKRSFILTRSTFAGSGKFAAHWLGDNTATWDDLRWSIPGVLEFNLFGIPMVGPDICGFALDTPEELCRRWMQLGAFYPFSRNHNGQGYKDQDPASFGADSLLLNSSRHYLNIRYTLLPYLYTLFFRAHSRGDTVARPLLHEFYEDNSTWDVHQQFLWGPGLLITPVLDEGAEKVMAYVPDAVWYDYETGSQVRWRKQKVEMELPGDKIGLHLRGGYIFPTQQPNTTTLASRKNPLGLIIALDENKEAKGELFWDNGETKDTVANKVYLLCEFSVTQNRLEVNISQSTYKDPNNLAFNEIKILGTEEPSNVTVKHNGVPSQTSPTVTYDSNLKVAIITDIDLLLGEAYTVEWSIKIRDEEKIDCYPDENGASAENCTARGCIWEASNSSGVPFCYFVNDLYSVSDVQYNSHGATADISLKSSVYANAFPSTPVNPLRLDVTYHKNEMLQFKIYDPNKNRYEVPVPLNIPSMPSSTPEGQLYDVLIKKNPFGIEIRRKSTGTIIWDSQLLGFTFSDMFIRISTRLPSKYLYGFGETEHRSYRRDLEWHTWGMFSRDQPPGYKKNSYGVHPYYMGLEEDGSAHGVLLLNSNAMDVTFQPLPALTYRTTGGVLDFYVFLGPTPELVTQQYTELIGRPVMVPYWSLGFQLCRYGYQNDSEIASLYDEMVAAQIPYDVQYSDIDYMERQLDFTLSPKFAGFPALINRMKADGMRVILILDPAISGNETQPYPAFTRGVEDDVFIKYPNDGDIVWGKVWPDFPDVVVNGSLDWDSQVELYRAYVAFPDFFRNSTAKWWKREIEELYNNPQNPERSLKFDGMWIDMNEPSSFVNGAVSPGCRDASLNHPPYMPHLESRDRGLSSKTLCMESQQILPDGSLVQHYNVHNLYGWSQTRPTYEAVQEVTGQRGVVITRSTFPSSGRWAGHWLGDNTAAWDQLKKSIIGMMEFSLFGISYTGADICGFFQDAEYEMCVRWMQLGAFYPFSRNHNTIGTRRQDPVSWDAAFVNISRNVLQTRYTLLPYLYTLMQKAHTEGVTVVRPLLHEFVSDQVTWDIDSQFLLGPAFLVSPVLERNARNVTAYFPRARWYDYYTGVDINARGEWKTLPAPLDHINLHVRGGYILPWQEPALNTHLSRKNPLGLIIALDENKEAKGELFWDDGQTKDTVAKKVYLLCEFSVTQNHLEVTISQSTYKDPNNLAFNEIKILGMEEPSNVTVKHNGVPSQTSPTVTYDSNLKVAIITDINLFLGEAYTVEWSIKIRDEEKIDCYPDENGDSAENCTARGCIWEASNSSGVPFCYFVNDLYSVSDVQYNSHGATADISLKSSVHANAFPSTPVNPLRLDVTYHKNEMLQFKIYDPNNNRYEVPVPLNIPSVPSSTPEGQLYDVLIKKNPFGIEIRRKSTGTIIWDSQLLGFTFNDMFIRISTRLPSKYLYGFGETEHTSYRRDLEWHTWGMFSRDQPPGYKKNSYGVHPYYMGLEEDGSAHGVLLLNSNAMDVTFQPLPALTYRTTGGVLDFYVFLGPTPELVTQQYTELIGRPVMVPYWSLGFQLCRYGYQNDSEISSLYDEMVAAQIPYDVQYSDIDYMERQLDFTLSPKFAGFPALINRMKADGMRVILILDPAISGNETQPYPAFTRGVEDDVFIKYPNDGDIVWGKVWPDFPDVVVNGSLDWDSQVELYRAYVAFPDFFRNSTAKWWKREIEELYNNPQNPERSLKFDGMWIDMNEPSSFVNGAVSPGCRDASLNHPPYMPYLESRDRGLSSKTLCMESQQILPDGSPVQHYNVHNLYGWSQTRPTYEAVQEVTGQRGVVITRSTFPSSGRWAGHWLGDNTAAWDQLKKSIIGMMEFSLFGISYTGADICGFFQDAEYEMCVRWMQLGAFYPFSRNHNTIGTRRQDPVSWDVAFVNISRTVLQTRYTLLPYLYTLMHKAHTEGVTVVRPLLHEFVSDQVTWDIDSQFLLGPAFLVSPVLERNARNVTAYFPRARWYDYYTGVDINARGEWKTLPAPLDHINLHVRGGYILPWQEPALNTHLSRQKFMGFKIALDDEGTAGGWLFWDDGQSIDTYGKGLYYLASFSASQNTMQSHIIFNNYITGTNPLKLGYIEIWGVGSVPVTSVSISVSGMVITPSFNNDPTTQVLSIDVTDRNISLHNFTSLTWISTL

Take `O=C(N/N=C/c1ccncc1)c1ccc(-c2nc3ccccc3s2)cc1`: the IC50 entry is “Not Active”. As for `COc1ccc(/C=N/NC(=O)c2ccc(-c3nc4ccccc4s3)cc2)cc1OC`, the entry is “Not Active”. For `COc1ccc(/C=N/NC(=O)c2ccc(-c3nc4ccccc4s3)cc2)cc1O` the value was “Not Active”; for `COC(=O)c1ccc(/C=N/NC(=O)c2ccc(-c3nc4ccccc4s3)cc2)cc1`, “Not Active”; for `O=C(N/N=C/c1cccnc1)c1ccc(-c2nc3ccccc3s2)cc1`, “Not Active”.
